“Also recorded” adds a separate entry of the source.
What was measured:
[1] = system: keratinocytes (epithelial formation and differentiation); assay: organotypical cultures with c-jun −/− fibroblasts, application of cytokines; assay type: cell-based, human; conditions: for phenotype obtained in organotypical cultures with c-jun −/−: FIG. 6
Experimental: Type 1 collagen was prepared from rat tail tendons and provided at a concentration of 4 mg/ml in 0.1% acetic acid as rdady-to-use solution (Smola et al., 1993). The collagen gels used consisted of 80% by volume of 4 mg/ml collagen in 0.1% acetic acid, 10% by volume Hank's salt solution (concentrated tenfold) and 10% by volume FCS with or without cells (2×10^5 cells/ml). The liquid collagen was admixed with Hank's solution on ice and neutralized with 5 M NaOH with stirring (trypsinated cells taken up in FCS can then be added to the collagen solution by stirring). The gel solution was poured into cell culture dishes or 2.5 ml each into filter inserts (3 μm pore size, Becton Dickinson, Heidelberg, Germany) and allowed to stay in an incubator to form a gel for 1 hour. Sterile glass rings having an internal diameter of 18 mm (1.5 mm wall thickness, 12 mm height) were placed onto the gels and slightly pressed thereon. Following 1 h in the incubator, the collagen gels were equilibrated in DMEM with 10% FCS. After 24 h, the medium was withdrawn from the glass rings and 1 ml keratinocyte suspension (9×10^5 cells/ml FAD) each were seeded into the glass ring interior. After 24 h of incubation, the medium was removed from the keratinocytes so as to expose the cells to air. This time was defined as day 0 of the organotypcial cultures. DMEM having 10% FCS was exchanged every other day, the medium level in this case bordering on the top gel rim. For histological or immunohistochemical processing, the cultures were fixed or frozen. In order to detect proliferating cells in a culture by immunohistochemical methods, the cultures BrdU (Sigma) were added to the medium at a concentration of 65 μM 12 h prior to fixing.
2D cocultures on plastic dishes or glass slides or in 3D form as organotypical cultures were incubated in corresponding standard medium for 24 h. Thereafter, medium enriched with cytokines was added and the cultures were incubated therewith depending on the experiment for several hours or days, the medium being changed with factor added every other day. Supplier of the growth factors and antibodies: KGF (BTS, St. Leon, Germany); anti-GM-CSF, polyclonal, neutralizing (R&D-Systems, Wiesbaden, Germany); GM-CSF (Boehringer Mannheim, Germany) and anti-KGF, monoclonal, neutralizing (R&D-Systems).
In the case of monolayer cultures of adherent cells, the medium was withdrawn from the cells and the cells were fixed on the glass slides in 80% methanol for 5 min. and 100% acetone for 3 min. The slides were then dried and stored at −40° C. For the production of paraffin preparations, organotypical cocultures or skin biopsies wee fixed in 3.5% formaldehyde (in PBS+) for at least 24 h, and initially embedded in agar and then in paraffin (Medim, Vogel company, GieβSen, Germany). The preparations were cut into 2 μm sections which were stained histologically with hematoxylin (15 min.) and eosin (5 min.). Following deparaffinization it was also possible to use the paraffin sections for immunohistochemical analyses. For the production of frozen preparations, skin samples or organotypical cocultures were frozen on cork platelets in embedding gel (“Tissue Teck”, O.C.T., Frankfurt, Germany) on liquid nitrogen. The preparations were stored at −80° C. 5-μm sections were prepared using a freezing microtome, placed onto silanized slides and used for immunohistochemical analyses.
Paraffin sections were deparaffinized in a descending alcohol series and rinsed in PBS. Thereafter, the epitopes on the tissue sections were made accessible by boiling the sections in “Tuf” solution for 5 min. (Advanced Biotechnologies, Hamburg, Germany) and 0.1% trypsin at 37° C. or microwave treatment in 0.1 M citrate buffer for 30 min. Freeze sections were fixed in 80% methanol for 5 min., then in acetone for 2 min. For detecting the incorporation of BrdU (proliferation assay), the sections were incubated in 1.5 M HCI for 10 min. to denature the DNA strands. […]

[2] = system: primary human keratinocytes; assay: 2D coculture of c-jun −/− c-JunER™ fibroblasts with primary human keratinocytes; assay type: cell-based; conditions: 100 nM every 12 hours, three days, immunofluorescence
Source text: The corresponding controls remained untreated.

Row | transglutaminase, filaggrin and loricrin expression ([1]; c-jun −/− fibroblasts) | Molecule | phenotype obtained in organotypical cultures with c-jun −/− [1] | K1/K10 expression ([1]; c-jun −/− fibroblasts) | differentiation status of the epithelium ([1]; c-jun −/− fibroblasts) | epithelial formation ([1]; c-jun −/− fibroblasts) | loricrin expression (timing) ([1]; c-jun −/− fibroblasts) | enhanced expression of the differentiation marker K1/K10 [2] | granular layer and expression of the differentiation markers filaggrin and loricrin ([1]; c-jun −/− fibroblasts, histology)
1 | expressed enhancedly | GM-CSF: cytokine GM-CSF (Boehringer Mannheim, Germany) | can partially be reversed | expressed late | does not correspond to the normal condition | eliminates the reduced epithelial formation; also recorded: effects an enhanced epithelial formation | expressed prematurely | – | –
2 | – | CC/C(=C(\c1ccc(O)cc1)c1ccc(OCCN(C)C)cc1)c1ccccc1 [4-OH-tamoxifen] | – | – | – | – | – | can be eliminated again | –
3 | – | KGF: cytokine / growth factor KGF (BTS, St. Leon, Germany) (protein, UniProt P21781 32-194, looked up) Fibroblast growth factor 7: CNDMTPEQMATNVNCSSPERHTRSYDYMEGGDIRVRRLFCRTQWYLRIDKRGKVKGTQEMKNNYNIMEIRTVAVGIVAIKGVESEFYLAMNKEGKLYAKKECNEDCNFKELILENHYNTYASAKWTHNGGEMFVALNQKGIPVRGKKTKKEQKTAHFLPMAIT | can partially be reversed | – | the full differentiation status is not restored | eliminates the reduced epithelial formation | – | – | lack
